What all share (assay): relative viability (nuclei count vs DMSO), 5 days (fraction); higher = more cells survive
Compound in assay [1]: CN(C)C(=N)NC(=N)N [Metformin] + COc1cccc2cc(-c3nc([C@H]4CC[C@H](C(=O)O)CC4)n4ncnc(N)c34)[nH]c12 [OSI-027] (partner 0.5 µM)
The gist of the method:
(§1)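 One day after seeding in 1536-well plates, lung cancer cell lines were dosed by pin tool. Dosing was either single-drug or a fixed anchor-drug dose plus five library-drug doses (not always all listed) in √10 steps. After 5 days, nuclei were stained in one fix-and-stain step and counted on 4× images, and relative viability is the nuclei count of treated wells over that of vehicle wells, given as the median of duplicate plates.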

Compound in assay [2]: N#CC1(c2ccc(NC(=O)c3cccnc3NCc3ccncc3)cc2)CCCC1 [Apatinib] + CCNC(=O)c1noc(-c2cc(C(C)C)c(O)cc2O)c1-c1ccc(CN2CCOCC2)cc1 [Luminespib] (partner 0.01 µM)
The gist of the method: as §1

Compound in assay [3]: N#CC1(c2ccc(NC(=O)c3cccnc3NCc3ccncc3)cc2)CCCC1 [Apatinib] + CS(=O)(=O)CCNCc1ccc(-c2ccc3ncnc(Nc4ccc(OCc5cccc(F)c5)c(Cl)c4)c3c2)o1 [Lapatinib] (partner 2 µM)
A digest of the protocol: as §1

Compound in assay [4]: N#CC1(c2ccc(NC(=O)c3cccnc3NCc3ccncc3)cc2)CCCC1 [Apatinib] + NC(=O)Nc1cc(-c2cccc(F)c2)sc1C(=O)N[C@H]1CCCNC1 [AZD7762] (partner 0.2 µM)
The gist of the method: as §1

Consider NCI-H2347, for which the relative viability in assay [1] (first compound 10 µM) stood at 0.416; in assay [1] (first compound 31.62 µM) it was 0.486; in assay [1] (first compound 316.23 µM), 0.466; in assay [1] (first compound 1000 µM), 0.415; in assay [2] (first compound 0.08 µM), 0.501; in assay [2] (first compound 0.253 µM), 0.415. The relative viability in assay [2] (first compound 0.8 µM) is 0.404; in assay [2] (first compound 2.53 µM), 0.416; in assay [2] (first compound 8 µM) it was 0.789; in assay [3] (first compound 0.08 µM), 0.926; in assay [3] (first compound 0.253 µM), 0.992; in assay [3] (first compound 0.8 µM) it was 1.02. Further, the relative viability in assay [3] (first compound 2.53 µM) was found to be 0.964; in assay [3] (first compound 8 µM) it was 0.957; in assay [4] (first compound 0.08 µM) it was 0.716; in assay [4] (first compound 0.253 µM) it was 0.791; in assay [4] (first compound 0.8 µM), 0.823; in assay [4] (first compound 2.53 µM) it was 0.654. Also, in assay [4] (first compound 8 µM), the relative viability is 0.556.

For NCI-H2405, the relative viability in assay [1] (first compound 10 µM) was determined as 0.567; in assay [1] (first compound 31.62 µM), 0.573; in assay [1] (first compound 100 µM) it was 0.608; in assay [1] (first compound 316.23 µM), 0.606; in assay [1] (first compound 1000 µM), 0.559; in assay [2] (first compound 0.08 µM) it was 0.675. Also, the relative viability in assay [2] (first compound 0.253 µM) was 0.695; in assay [2] (first compound 0.8 µM), 0.653; in assay [2] (first compound 2.53 µM), 0.621; in assay [2] (first compound 8 µM) it was 0.491; in assay [3] (first compound 0.08 µM), 0.959; in assay [3] (first compound 0.253 µM) it was 1.3. For the same cell line, the relative viability in assay [3] (first compound 0.8 µM) was 1.1; in assay [3] (first compound 2.53 µM), 0.975; in assay [3] (first compound 8 µM), 0.992; in assay [4] (first compound 0.08 µM), 0.773; in assay [4] (first compound 0.253 µM), 0.859; in assay [4] (first compound 0.8 µM), 0.713. For the same cell line, the relative viability in assay [4] (first compound 2.53 µM) stood at 0.55; in assay [4] (first compound 8 µM), 0.609.

Consider NCI-H3122, for which the relative viability in assay [1] (first compound 10 µM) was 0.672; in assay [1] (first compound 31.62 µM), 0.851; in assay [1] (first compound 100 µM), 0.574; in assay [1] (first compound 316.23 µM), 0.419; in assay [1] (first compound 1000 µM), 0.339; in assay [2] (first compound 0.08 µM) it was 0.0784. Besides, the relative viability was 0.0827 in assay [2] (first compound 0.253 µM); 0.0738 in assay [2] (first compound 0.8 µM); 0.0782 in assay [2] (first compound 2.53 µM); 0.0871 in assay [2] (first compound 8 µM); 1.03 in assay [3] (first compound 0.08 µM); 1.02 in assay [3] (first compound 0.253 µM). Also, the relative viability in assay [3] (first compound 0.8 µM) amounted to 1.01; in assay [3] (first compound 2.53 µM), 0.989; in assay [3] (first compound 8 µM) it was 1.01; in assay [4] (first compound 0.08 µM), 0.983; in assay [4] (first compound 0.253 µM), 0.988; in assay [4] (first compound 0.8 µM), 1.02. Also, the results for the relative viability in assay [4] (first compound 2.53 µM) and in assay [4] (first compound 8 µM) were 0.946 and 0.933, respectively.

As for PC-3 [JPC-3], the relative viability in assay [1] (first compound 10 µM) amounted to 0.599; in assay [1] (first compound 31.62 µM), 0.635; in assay [1] (first compound 100 µM) it was 0.638; in assay [1] (first compound 316.23 µM) it was 0.615; in assay [1] (first compound 1000 µM), 0.722; in assay [2] (first compound 0.08 µM) it was 0.712. The relative viability in assay [2] (first compound 0.253 µM) stood at 0.701; in assay [2] (first compound 0.8 µM), 0.711; in assay [2] (first compound 2.53 µM), 0.622; in assay [2] (first compound 8 µM), 0.485; in assay [3] (first compound 0.08 µM) it was 0.472; in assay [3] (first compound 0.253 µM), 0.441. Moreover, the relative viability in assay [3] (first compound 0.8 µM) turned out to be 0.444; in assay [3] (first compound 2.53 µM), 0.394; in assay [3] (first compound 8 µM), 0.43; in assay [4] (first compound 0.253 µM) it was 0.745; in assay [4] (first compound 0.8 µM), 0.672; in assay [4] (first compound 2.53 µM) it was 0.63. Also, the relative viability in assay [4] (first compound 8 µM) is 0.688.

Take PC-14: the relative viability in assay [1] (first compound 10 µM) was found to be 0.648; in assay [1] (first compound 31.62 µM), 0.929; in assay [1] (first compound 100 µM), 0.657; in assay [1] (first compound 316.23 µM), 0.607; in assay [1] (first compound 1000 µM), 0.574; in assay [2] (first compound 0.08 µM) it was 0.121. Moreover, the relative viability came to 0.15 in assay [2] (first compound 0.253 µM); 0.167 in assay [2] (first compound 2.53 µM); 0.144 in assay [2] (first compound 8 µM); 0.384 in assay [3] (first compound 0.08 µM); 0.29 in assay [3] (first compound 0.253 µM); 0.283 in assay [3] (first compound 0.8 µM). For the same cell line, the relative viability in assay [3] (first compound 2.53 µM) was 0.277; in assay [3] (first compound 8 µM), 0.23; in assay [4] (first compound 0.08 µM), 0.359; in assay [4] (first compound 0.253 µM) it was 0.348; in assay [4] (first compound 0.8 µM) it was 0.258; in assay [4] (first compound 2.53 µM), 0.167. Further, the relative viability in assay [4] (first compound 8 µM) came out at 0.267.

As to RERF-LC-KJ, the relative viability in assay [1] (first compound 10 µM) came out at 0.521; in assay [1] (first compound 31.62 µM), 0.503; in assay [1] (first compound 100 µM) it was 0.492; in assay [1] (first compound 316.23 µM), 0.394; in assay [1] (first compound 1000 µM) it was 0.415; in assay [2] (first compound 0.08 µM) it was 1.11. In addition, the relative viability in assay [2] (first compound 0.253 µM) was 1.35; in assay [2] (first compound 0.8 µM) it was 1.07; in assay [2] (first compound 2.53 µM), 1.22; in assay [2] (first compound 8 µM), 1.02; in assay [3] (first compound 0.08 µM) it was 0.787; in assay [3] (first compound 0.253 µM) it was 0.851. Besides, the relative viability in assay [3] (first compound 0.8 µM) stood at 0.817; in assay [3] (first compound 2.53 µM), 0.693; in assay [3] (first compound 8 µM), 0.698; in assay [4] (first compound 0.08 µM), 0.844; in assay [4] (first compound 0.253 µM), 1.02; in assay [4] (first compound 0.8 µM), 1.04. Further, the results for the relative viability in assay [4] (first compound 2.53 µM) and in assay [4] (first compound 8 µM) were 0.779 and 0.759, respectively.

For the origin of these results see the supplement of paper PMC10307832.
